The test system of data set [1] is Influenza A virus. Put plainly: Antiviral activity against influenza A virus infected in human A549 cells assessed as inhibition of RIG-1 protein expression at 25 to 100 uM by Western blot analysis. The format is functional, organism-based. The note with it: dose 25-100 µM. On the technique in general: Immunoblotting shows a protein as a band on a membrane.
For data set [2], the system named is Influenza A virus. Put plainly: Antiviral activity against influenza A virus H1N1 infected in MDCK cells assessed as decrease in virus infection-induced cytopathic effect. The format is functional, organism-based.
Data set [3] deals with Influenza A virus. Put plainly: In vivo antiviral activity against influenza A virus infected in BALB/c mouse assessed as reduction in IL-6 mRNA level in lung at 25 to 100 mg/kg measured after 6 dpi. It counts as functional, organism-based. The note with it: dose 25-100 mg/kg.
Data set [4] can be described thus: Toxicity in healthy BALB/c mouse assessed as pathological change in spleen at 25 to 100 mg/kg administered through gavage for 6 days. It counts as organism-based. The note with it: in vivo, po, 144 h, dose 25-100 mg/kg, time 6 day.
The test system of data set [5] is Influenza A virus. Briefly: Inhibition of influenza A virus infection induced apoptosis in MDCK cells infected with influenza virus assessed as upregulation of Bcl2 incubated for 36 hrs by Western blot analysis. It counts as functional, organism-based.
Data set [6] concerns Influenza A virus. Briefly: Antiviral activity against influenza A virus H1NI (A/Weiss/43) virus infected in dog MDCK cells assessed as viral inhibition treated after 2 hrs of viral infection measured at 72 hrs incubation by MTT assay. It counts as functional. For orientation: Tetrazolium dyes change colour on reduction, which living cells bring about.
The test system of data set [7] is Influenza A virus. Briefly: In vivo antiviral activity against influenza A virus infected in BALB/c mouse assessed as reduction in IAV-NP mRNA level in lung at 25 to 100 mg/kg measured after 6 dpi. It counts as functional, organism-based. The note with it: dose 25-100 mg/kg.
Data set [8] can be described thus: Selectivity index, ratio of CC50 for dog MDCK cells to EC50 for antiviral activity against Influenza A virus H1N1 (A/Weiss/43) infected in MDCK cells. The format is toxicity, cell-based. The note with it: read-out: Ratio CC50/EC50.
Data set [9] deals with Influenza A virus. Put plainly: Antiviral activity against influenza A virus infected in human A549 cells assessed as inhibition of IFN-beta expression by qRT-PCR analysis. The format is functional, organism-based. Background: Quantitative PCR measures a nucleic acid by following its amplification.
For data set [10], the system named is Influenza A virus. Briefly: Antiviral activity against influenza A virus infected in A549 cells assessed as decrease in IAV-M2 expression at 25 to 100 uM cells pretreated for 48 hrs followed by infected with virus by green fluorescent labelling based confocal microscopy. It counts as functional, organism-based. The note with it: dose 25-100 µM.
Data set [11] relates to Influenza A virus. Put plainly: Antiviral activity against influenza A virus infected in human A549 cells assessed as inhibition of TNFalpha expression by qRT-PCR analysis. It counts as functional, organism-based.

The structures appear in SMILES notation. Calls of active or inactive are those of the source. No cut-off for these calls is given here.

In the case of `COc1ccc2c(c1)c(-c1ccccc1)c(NS(C)(=O)=O)n2S(=O)(=O)c1ccc(C)cc1`, the outcome in the data set with Influenza A virus [1], in the data set on Influenza A virus [2], with Influenza A virus [3], with Influenza A virus [5], in the data set on Influenza A virus [7] and with Influenza A virus [9] was Active. Also, the result in the data set with Influenza A virus [10] and in the data set with Influenza A virus [11] was Active. The Activity result in [4] is given as “Non-toxic”. Also, the “inhibition (INH)” value with Influenza A virus [6] turned out to be 87.37%. In [8], the selectivity ratio was found to be 80.

(Values after ChEMBL document CHEMBL6087420, “Synthesis and pharmacodynamic evaluation of 2-aminoindole derivatives against influenza A virus in vitro/vivo” (Eur J Med Chem, 2025).)
